Laboratory results: the NIST ThermoML archive (doi:10.1016/j.fluid.2014.11.020)
± gives the expanded uncertainty stated by the source.

Test: activity coefficient (dimensionless); of the first substance listed, at infinite dilution; xn = mol fraction of the nth substance listed
Conditions: Liquid, Chromatography, x1 = 0

SMILES | activity coefficient (323.15 K) | activity coefficient (333.15 K) | activity coefficient (343.15 K)
c1ccsc1 [thiophene] + CN(C)c1cc[n+](COCCCOC[n+]2ccc(N(C)C)cc2)cc1.O=S(=O)([N-]S(=O)(=O)C(F)(F)F)C(F)(F)F.O=S(=O)([N-]S(=O)(=O)C(F)(F)F)C(F)(F)F | 0.55 ± 0.04 | 0.56 ± 0.04 | 0.57 ± 0.04
c1ccncc1 [pyridine] + CCCCCCCCn1cc[n+](COCCCOC[n+]2ccn(CCCCCCCC)c2C)c1C.O=S(=O)([N-]S(=O)(=O)C(F)(F)F)C(F)(F)F.O=S(=O)([N-]S(=O)(=O)C(F)(F)F)C(F)(F)F | 0.13 ± 0.03 | 0.14 ± 0.03 | 0.15 ± 0.03
C#CCCCC [1-hexyne] + CCCOC[n+]1ccc(N(C)C)cc1.O=S(=O)([N-]S(=O)(=O)C(F)(F)F)C(F)(F)F | 2.51 ± 0.17 | 2.5 ± 0.17 | 2.5 ± 0.17
CCC(C)CC [3-methylpentane] + CCCCCCCCn1cc[n+](COCCC)c1C.O=S(=O)([N-]S(=O)(=O)C(F)(F)F)C(F)(F)F | 3.57 ± 0.24 | 3.42 ± 0.23 | 3.05 ± 0.21
CCC(C)=O [butanone] + Cn1cc[n+](COCCCOC[n+]2ccn(C)c2)c1.O=S(=O)([N-]S(=O)(=O)C(F)(F)F)C(F)(F)F.O=S(=O)([N-]S(=O)(=O)C(F)(F)F)C(F)(F)F | 0.36 ± 0.03 | 0.34 ± 0.03 | 0.32 ± 0.03
CC(C)OC(C)C [diisopropyl ether] + CCCCCCCCn1cc[n+](COCCC)c1C.O=S(=O)([N-]S(=O)(=O)C(F)(F)F)C(F)(F)F | 1.95 ± 0.13 | 1.86 ± 0.13 | 1.82 ± 0.12
C#CCCCC [1-hexyne] + Cn1cc[n+](COCCCOC[n+]2ccn(C)c2)c1.O=S(=O)([N-]S(=O)(=O)C(F)(F)F)C(F)(F)F.O=S(=O)([N-]S(=O)(=O)C(F)(F)F)C(F)(F)F | 3.81 ± 0.26 | 3.68 ± 0.25 | 3.4 ± 0.23
CCCO [propan-1-ol] + CCCOC[n+]1ccc(N(C)C)cc1.O=S(=O)([N-]S(=O)(=O)C(F)(F)F)C(F)(F)F | 1.93 ± 0.13 | 1.72 ± 0.12 | 1.53 ± 0.1
C#CCCCC [1-hexyne] + CCCOC[n+]1ccn(C)c1.F[B-](F)(F)F | 10.3 ± 0.7 | 10.1 ± 0.69 | 9.44 ± 0.64
C#CCCCCC [1-heptyne] + CN(C)c1cc[n+](COCCCOC[n+]2ccc(N(C)C)cc2)cc1.O=S(=O)([N-]S(=O)(=O)C(F)(F)F)C(F)(F)F.O=S(=O)([N-]S(=O)(=O)C(F)(F)F)C(F)(F)F | 4.2 ± 0.29 | 4.09 ± 0.28 | 4.01 ± 0.27
CO [methanol] + CCCCCCCCn1cc[n+](COCCCOC[n+]2ccn(CCCCCCCC)c2C)c1C.N#C[N-]C#N.N#C[N-]C#N | 0.2 ± 0.03 | 0.2 ± 0.03 | 0.21 ± 0.03
CCCO [propan-1-ol] + CCCOC[n+]1ccn(Cc2ccccc2)c1.F[B-](F)(F)F | 2.15 ± 0.15 | 1.92 ± 0.13 | 1.78 ± 0.12
c1ccncc1 [pyridine] + CCCOC[n+]1ccn(Cc2ccccc2)c1.O=S(=O)([N-]S(=O)(=O)C(F)(F)F)C(F)(F)F |  | 0.28 ± 0.03 | 0.29 ± 0.03
C1COCCO1 [1,4-dioxane] + CCCOC[n+]1ccn(C)c1.N#C[N-]C#N | 1.06 ± 0.07 | 1.09 ± 0.07 | 1.12 ± 0.07
CCCCO [butan-1-ol] + CCCOC[n+]1ccn(C)c1.F[B-](F)(F)F | 4.61 ± 0.31 | 4.17 ± 0.28 | 3.76 ± 0.26
CO [methanol] + CCCOC[n+]1ccn(C)c1.O=S(=O)([N-]S(=O)(=O)C(F)(F)F)C(F)(F)F | 1.2 ± 0.08 | 1.12 ± 0.07 | 1.04 ± 0.07
Cc1ccccc1C [1,2-dimethylbenzene] + Cn1cc[n+](COCCCOC[n+]2ccn(C)c2)c1.N#C[N-]C#N.N#C[N-]C#N | 8.42 ± 0.57 | 8.26 ± 0.56 | 8.25 ± 0.56
C1CCCCCC1 [cycloheptane] + CCCOC[n+]1ccn(C)c1.O=S(=O)([N-]S(=O)(=O)C(F)(F)F)C(F)(F)F | 27.2 ± 1.9 | 35.8 ± 2.5 | 46.1 ± 3.2
CCCCCCCCCC [decane] + N#C[N-]C#N.N#C[N-]C#N.c1ccc(Cn2cc[n+](COCCCOC[n+]3ccn(Cc4ccccc4)c3)c2)cc1 | 420 ± 29 | 371 ± 25 | 321 ± 22
ClCCl [dichloromethane] + CCCCCCCCn1cc[n+](COCCCOC[n+]2ccn(CCCCCCCC)c2C)c1C.N#C[N-]C#N.N#C[N-]C#N | 0.28 ± 0.03 | 0.29 ± 0.03 | 0.31 ± 0.03
CCC(C)CC [3-methylpentane] + Cn1cc[n+](COCCCOC[n+]2ccn(C)c2)c1.O=S(=O)([N-]S(=O)(=O)C(F)(F)F)C(F)(F)F.O=S(=O)([N-]S(=O)(=O)C(F)(F)F)C(F)(F)F | 39.2 ± 2.7 | 14.4 ± 1 | 
C1COCCO1 [1,4-dioxane] + CCCCCCCCn1cc[n+](COCCCOC[n+]2ccn(CCCCCCCC)c2C)c1C.O=S(=O)([N-]S(=O)(=O)C(F)(F)F)C(F)(F)F.O=S(=O)([N-]S(=O)(=O)C(F)(F)F)C(F)(F)F | 0.28 ± 0.03 | 0.27 ± 0.03 | 0.28 ± 0.03

SMILES | activity coefficient (323.15 K) | activity coefficient (333.15 K) | activity coefficient (343.15 K)
CCO [ethanol] + CCCCCCCCn1cc[n+](COCCC)c1C.O=S(=O)([N-]S(=O)(=O)C(F)(F)F)C(F)(F)F | 1.12 ± 0.07 | 1.02 ± 0.06 | 0.94 ± 0.06
CCCCCCCCCCCC [dodecane] + CCCOC[n+]1ccn(C)c1.F[B-](F)(F)F | 1160 ± 80 | 1160 ± 80 | 1150 ± 79
CCC(C)CC [3-methylpentane] + CCCOC[n+]1ccc(N(C)C)cc1.O=S(=O)([N-]S(=O)(=O)C(F)(F)F)C(F)(F)F | 9.61 ± 0.66 | 9.48 ± 0.65 | 9.24 ± 0.63
CCCCCCCCC [nonane] + CCCCCCCCn1cc[n+](COCCC)c1C.N#C[N-]C#N | 14.9 ± 1 | 13.6 ± 0.93 | 13.1 ± 0.9
CCO [ethanol] + CCCCCCCCn1cc[n+](COCCCOC[n+]2ccn(CCCCCCCC)c2C)c1C.O=S(=O)([N-]S(=O)(=O)C(F)(F)F)C(F)(F)F.O=S(=O)([N-]S(=O)(=O)C(F)(F)F)C(F)(F)F | 0.64 ± 0.04 | 0.58 ± 0.04 | 0.55 ± 0.04
Cc1ccccc1 [toluene] + CCCCCCCCn1cc[n+](COCCC)c1C.O=S(=O)([N-]S(=O)(=O)C(F)(F)F)C(F)(F)F | 0.76 ± 0.05 | 0.76 ± 0.05 | 0.77 ± 0.05
CC(C)O [propan-2-ol] + CCCOC[n+]1ccn(Cc2ccccc2)c1.N#C[N-]C#N | 0.85 ± 0.05 | 0.84 ± 0.05 | 0.82 ± 0.05
ClCCl [dichloromethane] + CCCOC[n+]1ccn(C)c1.O=S(=O)([N-]S(=O)(=O)C(F)(F)F)C(F)(F)F | 0.71 ± 0.05 | 0.79 ± 0.05 | 0.75 ± 0.05
CC(C)O [propan-2-ol] + Cn1cc[n+](COCCCOC[n+]2ccn(C)c2)c1.N#C[N-]C#N.N#C[N-]C#N | 1.39 ± 0.09 | 1.32 ± 0.09 | 1.26 ± 0.08
CCCC(C)=O [pentan-2-one] + CCCOC[n+]1ccn(C)c1.O=S(=O)([N-]S(=O)(=O)C(F)(F)F)C(F)(F)F | 0.72 ± 0.05 | 0.72 ± 0.05 | 0.73 ± 0.05
CCCO [propan-1-ol] + CN(C)c1cc[n+](COCCCOC[n+]2ccc(N(C)C)cc2)cc1.O=S(=O)([N-]S(=O)(=O)C(F)(F)F)C(F)(F)F.O=S(=O)([N-]S(=O)(=O)C(F)(F)F)C(F)(F)F | 1.51 ± 0.1 | 1.37 ± 0.09 | 1.22 ± 0.08
C1CCCCCC1 [cycloheptane] + CCCOC[n+]1ccn(C)c1.N#C[N-]C#N | 79.2 ± 5.4 | 105 ± 7.2 | 133 ± 9.1
Cc1ccccc1 [toluene] + CCCOC[n+]1ccn(C)c1.F[B-](F)(F)F | 6.06 ± 0.41 | 6.02 ± 0.41 | 5.98 ± 0.41
CCCCCCCCCCCCCC [tetradecane] + CCCOC[n+]1ccn(C)c1.N#C[N-]C#N | 1510 ± 100 | 1390 ± 96 | 1260 ± 87
c1ccsc1 [thiophene] + N#C[N-]C#N.N#C[N-]C#N.c1ccc(Cn2cc[n+](COCCCOC[n+]3ccn(Cc4ccccc4)c3)c2)cc1 | 1.7 ± 0.11 | 1.64 ± 0.11 | 1.67 ± 0.11
CCCCO [butan-1-ol] + CCCOC[n+]1ccc(N(C)C)cc1.O=S(=O)([N-]S(=O)(=O)C(F)(F)F)C(F)(F)F | 2.25 ± 0.15 | 2.04 ± 0.14 | 1.85 ± 0.12
CCCCCCCC [octane] + CCCCCCCCn1cc[n+](COCCCOC[n+]2ccn(CCCCCCCC)c2C)c1C.N#C[N-]C#N.N#C[N-]C#N | 12.1 ± 0.82 | 11.4 ± 0.78 | 11.3 ± 0.77
CC#N [acetonitrile] + CCCCCCCCn1cc[n+](COCCCOC[n+]2ccn(CCCCCCCC)c2C)c1C.N#C[N-]C#N.N#C[N-]C#N | 0.46 ± 0.04 | 0.46 ± 0.04 | 0.45 ± 0.04
ClC(Cl)(Cl)Cl [tetrachloromethane] + CCCOC[n+]1ccn(Cc2ccccc2)c1.F[B-](F)(F)F | 5.01 ± 0.34 | 4.71 ± 0.32 | 4.58 ± 0.31
CCC(=O)CC [pentan-3-one] + CCCCCCCCn1cc[n+](COCCCOC[n+]2ccn(CCCCCCCC)c2C)c1C.O=S(=O)([N-]S(=O)(=O)C(F)(F)F)C(F)(F)F.O=S(=O)([N-]S(=O)(=O)C(F)(F)F)C(F)(F)F | 0.28 ± 0.03 | 0.28 ± 0.03 | 0.29 ± 0.03
CCC[N+](=O)[O-] [1-nitropropane] + CCCCCCCCn1cc[n+](COCCC)c1C.N#C[N-]C#N | 0.76 ± 0.05 | 0.75 ± 0.05 | 0.75 ± 0.05
